Test results reported in US12448371B2, “Inhibitor compounds” (Cincera Therapeutics Pty Ltd, priority 2019, dated 2025).
pIC50: −log10 of the molar value. Where a name gives a salt, the structure may show the parent alone.

Target: T1, Des1 (h) (Homo sapiens, UniProt O15121)
T1 construct: endogenous in cells; host or cells: parental Jurkat cells
T1 sequence (O15121 1-323): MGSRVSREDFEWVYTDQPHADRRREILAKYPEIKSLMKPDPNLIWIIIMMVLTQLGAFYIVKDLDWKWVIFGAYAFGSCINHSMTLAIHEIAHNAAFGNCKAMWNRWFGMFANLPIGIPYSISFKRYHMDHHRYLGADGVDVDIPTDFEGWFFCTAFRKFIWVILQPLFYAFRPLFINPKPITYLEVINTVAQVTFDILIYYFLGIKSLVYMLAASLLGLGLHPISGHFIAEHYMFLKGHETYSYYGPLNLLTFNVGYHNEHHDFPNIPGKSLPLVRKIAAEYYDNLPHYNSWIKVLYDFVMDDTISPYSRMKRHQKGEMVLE
Test: Measurement of Dihydroceramide Desaturase-1 (Des-1) activity in intact Jurkat cells labeled with DhCer-C6-NBD (HPLC)
Format: cell-based
Settings: for pIC50: intact Jurkat cells, given as concentration range, or <X / >X if measured at one concentration X only, read-out: Des1 (h) Jurkat IC50
Procedure: Measurement of Dihydroceramide Desaturase-1 (Des-1) Activity
Compounds were assessed for Des-1 inhibitory activity. Measurement of Des1 activity was performed by HPLC using intact Jurkat cells labeled with DhCer-C6-NBD as described previously (Munoz-Olaya, J. M. et al. ChemMedChem 2008, 3, 946-953) with modifications to enhance sensitivity and reproducibility. These modifications included the use of parental Jurkat cells, 0.5% serum in the culture media, and cell harvesting via centrifugation at 500×g to maximise ceramide extraction. Extracted samples (50 ul) were analysed on a Waters HPLC coupled to a fluorescence detector using a 30 cm C18 reverse-phase column eluted with 1 ml/min 20% H2O and 80% acetonitrile, both with a 0.1% of trifluoroacetic acid. NBD-labelled substrate and product were quantitated with an excitation and emission wavelengths of 465 nm and 530 nm, respectively.

SMILES | pIC50 | inhibition at 1 µM (Jurkat cells) | % inhibition of Des1 at 0.1 μM (Jurkat cells, 0.1 μM)
O=C(NC[C@@H](O)CO)c1ccc(Nc2ncc(-c3ccc(C(F)(F)F)cc3)o2)nn1 [Example 41, (R)—N-(2,3-Dihydroxypropyl)-6-((5-(4-(trifluoromethyl)phenyl)oxazol-2-yl)amino)-pyridazine-3-carboxamide] | > 7.00 |  | 
N/C(=N\O)c1cnc(Nc2nc(-c3ccc(C(F)(F)F)cn3)no2)cn1 [Example 85, N′-hydroxy-5-((3-(5-(trifluoromethyl)pyridin-2-yl)-1,2,4-oxadiazol-5-yl)amino)pyrazine-2-carboximidamide] | < 6.00 | 15% | 
N/C(=N/O)c1ccc(Nc2ncc(-c3ncc(C(F)(F)F)cn3)o2)cn1 [Example 65, N′-Hydroxy-5-((5-(5-(trifluoromethyl)pyrimidin-2-yl)oxazol-2-yl)amino)picolinimidamide] | < 6.00 | 26% | 
O=C(NO)c1ncc(Nc2nc(-c3ccc(C(F)(F)F)cc3)co2)cn1 [Example 12, N-Hydroxy-5-((4-[4-(trifluoromethyl)phenyl]-1,3-oxazol-2-yl)amino)pyrimidine-2-carboxamide] | 5.00 to 6.00 |  | 
O=C(NCC(O)CO)c1ccc(Nc2cnn(-c3ccc(C(F)(F)F)cn3)c2)cn1 (racemic) [Compound 104, rac-N-(2,3-Dihydroxypropyl)-5-((1-(5-(trifluoromethyl)pyridin-2-yl)-1H-pyrazol-4-yl)amino)picolinamide] | < 6.00 | 26% | 
NNC(=O)c1ccc(Nc2ncc(-c3ccc(C(F)(F)F)cc3)o2)cn1 [Compound 92, 5-((5-(4-(Trifluoromethyl)phenyl)oxazol-2-yl)amino)picolinohydrazide] | 6.00 to 7.00 |  | 
N/C(=N\O)c1ncc(Nc2ncc(-c3ccc(C(F)(F)F)cn3)o2)cc1O [Example 40, N′,3-Dihydroxy-5-((5-(5-(trifluoromethyl)pyridin-2-yl)oxazol-2-yl)amino)picolinimidamide hydrochloride] | 7.00 to 8.00 |  | 
N/C(=N\O)c1ncc(Nc2ncn(-c3ccc(C(F)(F)F)cc3)n2)cc1O [Example 31, N′,3-Dihydroxy-5-((1-(4-(trifluoromethyl)phenyl)-1H-1,2,4-triazol-3-yl)amino)picolinimidamide] | > 6.00 |  | 
N=C(NO)c1ccc(Nc2nnc(-c3ccc(C(F)(F)F)c(F)c3)o2)cn1 [Example 6, 5-((5-[3-Fluoro-4-(trifluoromethyl)phenyl]-1,3,4-oxadiazol-2-yl)amino)-N-hydroxypyridine-2-carboximidamide] | 6.00 to 7.00 |  | 
N/C(=N\O)c1ncc(Nc2ncc(-c3ccc(C(F)(F)F)cn3)o2)cc1F [Example 56, 3-Fluoro-N′-hydroxy-5-((5-(5-(trifluoromethyl)pyridin-2-yl)oxazol-2-yl)amino)picolinimidamide] |  |  | 86%
N/C(=N\O)c1cnc(Nc2nc(-c3ccc(Cl)cn3)no2)cn1 [Example 81, 5-((3-(5-Chloropyridin-2-yl)-1,2,4-oxadiazol-5-yl)amino)-N′-hydroxypyrazine-2-carboximidamide] | < 6.00 | 7% | 
CNNC(=O)c1ccc(Nc2ncc(-c3ccc(C(F)(F)F)cc3)o2)cn1 [Compound 94, N′-Methyl-5-((5-(4-(trifluoromethyl)phenyl)oxazol-2-yl)amino)picolinohydrazide] | < 6.00 | 30% | 
CCN(O)C(=O)c1ccc(Nc2ncc(-c3ccc(C(F)(F)F)cc3)o2)cn1 [Example 32, N-Ethyl-N-hydroxy-5-((5-(4-(trifluoromethyl)phenyl)oxazol-2-yl)amino)picolinamide] | > 6.00 |  | 
O=C(NO)c1ccc(Nc2nc(-c3ccc(C(F)(F)F)cc3)co2)cn1 [Example 14, N-Hydroxy-5-((4-[4-(trifluoromethyl)phenyl]-1,3-oxazol-2-yl)amino)picolinamide] | 6.00 to 7.00 |  | 
N=C(NO)c1ccc(Nc2nnc(-c3ccc(C(F)(F)F)cc3)o2)cn1 [Example 5, 5-((5-[4-(Trifluoromethyl)phenyl]-1,3,4-oxadiazol-2-yl)amino)-N-hydroxy-pyridine-2-carboximidamide] | 6.00 to 7.00 |  | 
O=C(NCCO)c1ccc(Nc2ncc(-c3ccc(C(F)(F)F)cc3)o2)cn1 [Example 19, N-(2-Hydroxyethyl)-5-((5-(4-(trifluoromethyl)phenyl)oxazol-2-yl)amino)picolinamide] | 5.00 to 6.00 |  | 
N/C(=N\O)c1ccc(Nc2ncc(-c3ccc(C(F)(F)F)cc3)o2)nn1 [Example 53, N′-Hydroxy-6-((5-(4-(trifluoromethyl)phenyl)oxazol-2-yl)amino)pyridazine-3-carboximidamide] | 8.00 to 9.00 |  | 
N/C(=N\O)c1ccc(Nc2nc(-c3ccc(C(F)(F)F)cc3)co2)cn1 [Example 60, N′-Hydroxy-5-((4-(4-(trifluoromethyl)phenyl)oxazol-2-yl)amino)picolinimidamide] | > 6.00 |  | 
O=S(=O)(NCC(O)CO)c1ccc(Nc2ncc(-c3ccc(C(F)(F)F)cc3)o2)cn1 (racemic) [Example 16, rac-N-(2,3-Dihydroxypropyl)-5-((5-[4-(trifluoromethyl)phenyl]-1,3-oxazol-2-yl)amino)pyridine-2-sulfonamide] | < 6.00 | 42% | 
N/C(=N\O)c1ccc(Nc2ncc(-c3ccc(C(F)F)cc3)o2)cn1 [Example 52, 5-((5-(4-(Difluoromethyl)phenyl)oxazol-2-yl)amino)-N′-hydroxypicolinimidamide] | 6.00 to 7.00 |  | 
CN(O)C(=O)c1ccc(Nc2ncn(-c3ccc(C(F)(F)F)cc3)n2)cn1 [Example 25, N-Hydroxy-N-methyl-5-((1-(4-(trifluoromethyl)phenyl)-1H-1,2,4-triazol-3-yl)amino)picolinamide] | > 6.00 |  | 
O=c1c(O)c(Nc2ccc(Nc3ncc(-c4ccc(C(F)(F)F)cc4)o3)cn2)c1=O [Example 30, 3-Hydroxy-4-((5-((5-(4-(trifluoromethyl)phenyl)oxazol-2-yl)amino)pyridin-2-yl)amino)cyclobut-3-ene-1,2-dione] | > 6.00 |  | 
O=C(NCC(O)CO)c1ccc(Nc2ncc(-c3ccc(C(F)(F)F)cc3)o2)cn1 (racemic) [Example 17, rac-N-(2,3-Dihydroxypropyl)-5-((5-[4-(trifluoromethyl)phenyl]-1,3-oxazol-2-yl)amino) picolinamide] | 8.00 to 9.00 |  | 
N/C(=N\O)c1ccc(Nc2nc(-c3ccc(Cl)cn3)no2)cn1 [Example 80, 5-((3-(5-Chloropyridin-2-yl)-1,2,4-oxadiazol-5-yl)amino)-N′-hydroxypicolinimidamide] | < 6.00 | 24% | 
N/C(=N\O)c1ccc(Nc2ncc(-c3ccc(OC(F)F)cc3)o2)cn1 [Example 51, 5-((5-(4-(Difluoromethoxy)phenyl)oxazol-2-yl)amino)-N′-hydroxy picolinimidamide] | 6.00 to 7.00 |  | 
N/C(=N\O)c1cnc(Nc2ncc(-c3ccc(Cl)cc3)o2)cn1 [Compound 101, 5-((5-(4-Chlorophenyl)oxazol-2-yl)amino)-N′-hydroxypyrazine-2-carboximidamide] | > 6.00 |  | 
Oc1ccc(Nc2ncc(-c3ccc(OC(F)(F)F)cc3)o2)nc1 [Compound 105, 6-((5-(4-(Trifluoromethoxy)phenyl)oxazol-2-yl)amino)pyridin-3-ol] | > 6.00 |  | 
